Data from ChEMBL document CHEMBL4825690, “Synthesis and biological evaluation of chalcone-polyamine conjugates as novel vectorized agents in colorectal and prostate cancer chemotherapy” (Eur J Med Chem, 2021).
The source made the active and inactive calls. The calls are words filed in the database; no cut-off is given here.

What was measured:
HCT-116 [1] = test: Induction of apoptosis in human HCT-116 cells assessed as necrotic cells incubated for 48 hrs by annexin-V/FITC and propidium iodide staining based flow cytometry analysis (reference value: 7.22 %); type: functional
DU-145 [2] = test: Induction of apoptosis in human DU-145 cells assessed as decrease in pro-caspase-3 expression by Western blot assay; type: functional, cell-based
DU-145 [3] = test: Induction of cell cycle arrest in human DU-145 cells assessed as effect on cyclin B1 expression by Western blot analysis; type: functional, cell-based
PC-3 [4] = test: Induction of apoptosis in human PC-3 cells assessed as late apoptotic cells incubated for 48 hrs by annexin-V/FITC and propidium iodide staining based flow cytometry analysis (reference value: 2.13 %); type: functional
HT-29 [5] = test: Induction of cell cycle arrest at G1 phase in human HT-29 cells assessed as reduction in Cyclin E2 expression by Western blot analysis; type: functional, cell-based
HCT-116 [6] = test: Induction of apoptosis in human HCT-116 cells assessed as increase in DNA fragmentation after 48 hrs by ELISA relative to control; type: functional
HCT-116 [7] = test: Induction of cell cycle arrest in human HCT-116 cells assessed as increase in Cyclin E2 expression by Western blot analysis; type: functional, cell-based
HT-29 [8] = test: Induction of apoptosis in human HT-29 cells assessed as late apoptotic cells incubated for 48 hrs by annexin-V/FITC and propidium iodide staining based flow cytometry analysis (reference value: 9.52%); type: functional
HT-29 [9] = test: Induction of cell cycle arrest in human HT-29 cells assessed as accumulation at G2 phase at IC50 incubated for 48 hrs by RNaeA/propidium iodide based flow cytometry analysis (reference value: 13..16 %); type: functional
HT-29 [10] = test: Induction of apoptosis in human HT-29 cells assessed as necrotic cells incubated for 48 hrs by annexin-V/FITC and propidium iodide staining based flow cytometry analysis (reference value: 3.52%); type: functional
DU-145 [11] = test: Induction of apoptosis in human DU-145 cells assessed as necrotic cells incubated for 48 hrs by annexin-V/FITC and propidium iodide staining based flow cytometry analysis (reference value: 0.04 %); type: functional
HT-29 [12] = test: Induction of cell cycle arrest in human HT-29 cells assessed as accumulation at S phase at IC50 incubated for 48 hrs by RNaeA/propidium iodide based flow cytometry analysis (reference value: 32.45 %); type: functional
HCT-116 [13] = test: Induction of cell cycle arrest in human HCT-116 cells assessed as accumulation at G2 phase at IC50 incubated for 48 hrs by RNaeA/propidium iodide based flow cytometry analysis (reference value: 17.76 %); type: functional
HCT-116 [14] = test: Induction of cell cycle arrest in human HCT-116 cells assessed as reduction in CDK6 expression by Western blot analysis; type: functional, cell-based
HT-29 [15] = test: Induction of cell cycle arrest at G1 phase in human HT-29 cells assessed as reduction in CDK6 expression by Western blot analysis; type: functional, cell-based
PC-3 [16] = test: Induction of cell cycle arrest in human PC-3 cells assessed as decrease in Cdc2 expression by Western blot analysis; type: functional, cell-based
DU-145 [17] = test: Induction of cell cycle arrest in human DU-145 cells assessed as effect on Cdc2 expression by Western blot analysis; type: functional, cell-based
HT-29 [18] = test: Induction of cell cycle arrest at G1 phase in human HT-29 cells assessed as reduction in Cyclin D1 expression by Western blot analysis; type: functional, cell-based
DU-145 [19] = test: Induction of cell cycle arrest in human DU-145 cells assessed as accumulation at G2 phase at IC50 incubated for 48 hrs by […]/propidium iodide based flow cytometry analysis (reference value: 16.06 %); type: functional
HCT-116 [20] = test: Induction of apoptosis in human HCT-116 cells assessed as decrease in pro-caspase-3 expression by Western blot assay; type: functional, cell-based
DU-145 [21] = test: Induction of cell cycle arrest in human DU-145 cells assessed as accumulation at sub-G1 phase at IC50 incubated for 48 hrs by RNaeA/propidium iodide based flow cytometry analysis (reference value: 0 %); type: functional
HT-29 [22] = test: Induction of apoptosis in human HT-29 cells assessed as increase in cleaved PARP protein expression by Western blot assay; type: functional, cell-based
DU-145 [23] = test: Induction of cell cycle arrest in human DU-145 cells assessed as accumulation at S phase at IC50 incubated for 48 hrs by RNaeA/propidium iodide based flow cytometry analysis (reference value: 38.44 %); type: functional
DU-145 [24] = test: Antiproliferative activity against human DU145 cells assessed as reduction in cell viability incubated for 48 hr by MTT assay; type: functional, cell-based; settings: DU-145, 48 h
DU-145 [25] = test: Induction of apoptosis in human DU-145 cells assessed as increase in caspase-3 level by Western blot assay; type: functional, cell-based
HCT-116 [26] = test: Induction of cell cycle arrest in human HCT-116 cells assessed as accumulation at G1 phase at IC50 incubated for 48 hrs by RNaeA/propidium iodide based flow cytometry analysis (reference value: 51.56 %); type: functional
HT-29 [27] = test: Induction of apoptosis in human HT-29 cells assessed as increase in caspase-3 level by Western blot assay; type: functional, cell-based
PC-3 [28] = test: Induction of apoptosis in human PC-3 cells assessed as increase in DNA fragmentation after 48 hrs by ELISA relative to control; type: functional
HCT-116 [29] = test: Induction of apoptosis in human HCT-116 cells assessed as decrease in PARP protein expression by Western blot assay; type: functional, cell-based
HT-29 [30] = test: Induction of cell cycle arrest in human HT-29 cells assessed as increase in p21 expression by Western blot analysis; type: functional, cell-based
PC-3 [31] = test: Induction of cell cycle arrest in human PC-3 cells assessed as increase in p21 expression by Western blot analysis; type: functional, cell-based
HT-29 [32] = test: Induction of apoptosis in human HT-29 cells assessed as early apoptotic cells incubated for 48 hrs by annexin-V/FITC and propidium iodide staining based flow cytometry analysis (reference value: 3.37%); type: functional
PC-3 [33] = test: Induction of apoptosis in human PC-3 cells assessed as necrotic cells incubated for 48 hrs by annexin-V/FITC and propidium iodide staining based flow cytometry analysis (reference value: 0.54 %); type: functional
HT-29 [34] = test: Induction of cell cycle arrest at G1 phase in human HT-29 cells assessed as reduction in CDK2 expression by Western blot analysis; type: functional, cell-based
PC-3 [35] = test: Induction of apoptosis in human PC-3 cells assessed as decrease in pro-caspase-3 expression by Western blot assay; type: functional, cell-based
PC-3 [36] = test: Induction of cell cycle arrest in human PC3 cells assessed as accumulation at G1 phase at IC50 incubated for 48 hrs by RNaeA/propidium iodide based flow cytometry analysis (reference value: 42.61 %); type: functional
PC-3 [37] = test: Induction of apoptosis in human PC-3 cells assessed as early apoptotic cells incubated for 48 hrs by annexin-V/FITC and propidium iodide staining based flow cytometry analysis (reference value: 4.38 %); type: functional
HCT-116 [38] = test: Induction of apoptosis in human HCT-116 cells assessed as early apoptotic cells incubated for 48 hrs by annexin-V/FITC and propidium iodide staining based flow cytometry analysis (reference value: 5.21 %); type: functional
HCT-116 [39] = test: Induction of apoptosis in human HCT-116 cells assessed as increase in cleaved PARP protein expression by Western blot assay; type: functional, cell-based
HCT-116 [40] = test: Induction of cell cycle arrest in human HCT-116 cells assessed as accumulation at S phase at IC50 incubated for 48 hrs by RNaeA/propidium iodide based flow cytometry analysis (reference value: 30.68 %); type: functional

Question: How did the Activity (HCT-116 [1]) turn out when `COc1cc(C(=O)/C=C/c2ccc(OCCCNCCCNCCCCN)cc2)cc(OC)c1OC` was run?
Answer: 3.35%

Question: And the Activity (DU-145 [2])?
Answer: Active

Question: And the Activity (DU-145 [3])?
Answer: inactive

Question: And the Activity (PC-3 [4])?
Answer: 12.65%

Question: And the Activity (HT-29 [5])?
Answer: Active

Question: And the “fold change (FC)” value (HCT-116 [6])?
Answer: 4.72

Question: What about the Activity (HCT-116 [7]) of the same compound?
Answer: Active

Question: And the Activity (HT-29 [8])?
Answer: 31.39%

Question: And the Activity (HT-29 [9])?
Answer: 13.32%

Question: What about the Activity (HT-29 [10]) of the same compound?
Answer: 0.6%

Question: What about the Activity (DU-145 [11]) of the same compound?
Answer: 0.05%

Question: And the Activity (HT-29 [12])?
Answer: 26.03%

Question: What about the Activity (HCT-116 [13]) of the same compound?
Answer: 19.93%

Question: And the Activity (HCT-116 [14])?
Answer: Active

Question: And the Activity (HT-29 [15])?
Answer: Active

Question: And the Activity (PC-3 [16])?
Answer: Active

Question: What about the Activity (DU-145 [17]) of the same compound?
Answer: inactive

Question: What about the Activity (HT-29 [18]) of the same compound?
Answer: Active

Question: What about the Activity (DU-145 [19]) of the same compound?
Answer: 34.55%

Question: What about the Activity (HCT-116 [20]) of the same compound?
Answer: Active

Question: What about the Activity (DU-145 [21]) of the same compound?
Answer: 9.28%

Question: And the Activity (HT-29 [22])?
Answer: Active

Question: What about the Activity (DU-145 [23]) of the same compound?
Answer: 37.34%

Question: And the IC50 (DU-145 [24])?
Answer: 8.86 µM

Question: And the Activity (DU-145 [25])?
Answer: Active

Question: And the Activity (HCT-116 [26])?
Answer: 65.67%

Question: And the Activity (HT-29 [27])?
Answer: Active

Question: And the “fold change (FC)” value (PC-3 [28])?
Answer: 6.53

Question: What about the Activity (HCT-116 [29]) of the same compound?
Answer: Active

Question: What about the Activity (HT-29 [30]) of the same compound?
Answer: Active

Question: And the Activity (PC-3 [31])?
Answer: Active

Question: What about the Activity (HT-29 [32]) of the same compound?
Answer: 11.04%

Question: What about the Activity (PC-3 [33]) of the same compound?
Answer: 2.63%

Question: What about the Activity (HT-29 [34]) of the same compound?
Answer: Active

Question: And the Activity (PC-3 [35])?
Answer: Active

Question: What about the Activity (PC-3 [36]) of the same compound?
Answer: 19.12%

Question: And the Activity (PC-3 [37])?
Answer: 34.25%

Question: What about the Activity (HCT-116 [38]) of the same compound?
Answer: 22.92%

Question: And the Activity (HCT-116 [39])?
Answer: Active

Question: And the Activity (HCT-116 [40])?
Answer: 14.4%
